# Measured values reported in patent US20020165128A1, “Compositions and methods for proteolytically inactivating infectious agents using lactoferrin and related molecules” (priority 1998, published 2002).
# Columns and labels:
# [1] = molecular target: T1, lactoferrin-associated proteolysis of H. influenzae Hap (Homo sapiens, UniProt P02788); experiment: Inhibition of lactoferrin-associated proteolysis of Hap by serine protease inhibitor; assay type: cell-based; details: 7.5 mM inhibitor in isopropanol, DB117/HapS243A
# T1 construct: Lactoferrin amino acids are numbered beginning with the first residue in the mature protein (lacking the signal peptide); purchased Agennix Corporation; host or cells: Aspergillus awamori
# Method: To determine whether lactoferrin was functioning as a serine protease, the ability of phenylmethylsulfonyl fluoride (PMSF), a broad inhibitor of serine proteases, to inhibit degradation of Hap was examined. DB117/HapS243A was incubated in PBS (Lane 1), PBS with 430 nM A. awamori recombinant lactoferrin (Lane 2), PBS with 430 nM recombinant lactoferrin and 7.5% isopropanol (Lane 3), or PBS with recombinant lactoferrin and 7.5 mM PMSF in isopropanol (Lane 4). Whole cell lysates were prepared and examined by Western blot analysis with antiserum Rab 730, which reacts with the Hap preprotein, HapS, and Hap. The arrowhead indicates the Hap preprotein, and the arrows indicate Hap degradation products.
# [2] = molecular target: lactoferrin extraction of the IgA1 protease preprotein (Homo sapiens, UniProt P02788); assay type: cell-based; details: 10 mM inhibitor
# Chain of lactoferrin extraction of the IgA1 protease preprotein (P02788 20-710): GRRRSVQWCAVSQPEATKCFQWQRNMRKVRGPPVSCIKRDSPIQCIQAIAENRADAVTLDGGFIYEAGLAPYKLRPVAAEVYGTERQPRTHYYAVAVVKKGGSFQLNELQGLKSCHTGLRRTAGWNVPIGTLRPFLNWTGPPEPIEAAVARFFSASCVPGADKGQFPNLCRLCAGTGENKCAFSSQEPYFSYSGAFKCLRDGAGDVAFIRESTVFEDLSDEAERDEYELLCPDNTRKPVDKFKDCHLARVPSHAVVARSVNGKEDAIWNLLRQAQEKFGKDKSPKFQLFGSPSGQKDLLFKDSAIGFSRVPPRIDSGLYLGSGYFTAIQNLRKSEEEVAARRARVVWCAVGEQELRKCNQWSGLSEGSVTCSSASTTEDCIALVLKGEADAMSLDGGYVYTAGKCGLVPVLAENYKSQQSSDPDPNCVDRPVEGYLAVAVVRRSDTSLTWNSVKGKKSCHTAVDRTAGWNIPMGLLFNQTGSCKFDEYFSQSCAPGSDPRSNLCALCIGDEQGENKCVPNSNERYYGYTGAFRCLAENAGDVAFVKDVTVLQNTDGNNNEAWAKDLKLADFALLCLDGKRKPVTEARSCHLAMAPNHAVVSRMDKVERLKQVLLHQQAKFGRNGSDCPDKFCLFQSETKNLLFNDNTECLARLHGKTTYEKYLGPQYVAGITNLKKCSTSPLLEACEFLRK
# T1 sequence (P02788 20-710): as above
smiles,measurement,setting,value
"O=S(=O)(F)Cc1ccccc1 [PMSF, phenylmethylsulfonyl fluoride]",inhibition of proteolysis of Hap produced by 430 nM recombinant lactoferrin,[1],significantly inhibited
same,inhibition of lactoferrin extraction of IgA1 protease preprotein,[2],inhibited
